Literature values, collected in US9655905B2, “Treatment of sickle cell disease” (KING ABDULLAH UNIVERSITY OF SCIENCE AND TECHNOLOGY, priority 2011, dated 2017).

Experiments:
ICAM-1 = conditions: for Effect on ICAM-1: Table 6, adhesion, up in SCD
ET-1 = conditions: for Effect on ET-1: Table 6, vasoconstrictor, up in SCD; for levels of vasoconstrictor ET-1: cited literature
[1] = test system: erythrocyte-endothelial adhesion; conditions: HU therapy (Gambero, et al 2007)
ET-3 = test system: ET-3; parameters: key to Effect on ET-3: increases protein levels; decrease: reduces protein levels; exert no effect on protein levels; not known: has not been experimentally determined
SELE = conditions: for Effect on SELE: Table 6, adhesion, up in SCD
TNFα = conditions: for Effect on TNFα: Table 6, cytokine/inflammatory, up in SCD; for levels of TNF-α: cited literature
VCAM-1 = test system: VCAM-1; parameters: key to Effect on VCAM-1: increases protein levels; decrease: reduces protein levels; exert no effect on protein levels; not known: has not been experimentally determined
IL-10 = conditions: for Effect on IL-10: Table 6, anti-inflammatory; for levels of anti-inflammatory mediator IL-10: cited literature
VLA-4 = test system: VLA-4; parameters: key to Effect on VLA-4: increases protein levels; decrease: reduces protein levels; exert no effect on protein levels; not known: has not been experimentally determined
FN1 = conditions: for Effect on FN1: Table 6, coagulatory, up in SCD
NO = conditions: for Effect on NO: Table 6, vasodilator, down in SCD
IL-6 = conditions: for Effect on IL-6: Table 6, chemokine/inflammatory, up in SCD
IL-8 = test system: IL-8; parameters: key to Effect on IL-8: increases protein levels; decrease: reduces protein levels; exert no effect on protein levels; not known: has not been experimentally determined
fetal hemoglobin (HbF) = conditions: via NO-cGMP signaling pathway (Cokic, et al 2003)
IL-1β = conditions: for Effect on IL-1β: Table 6, cytokine/inflammatory, up in SCD
eNOS = conditions: for Effect on eNOS: Table 6, inhibitor of endothelial cell activation, down in SCD
IL-3 = test system: IL-3; parameters: key: increases protein levels; decrease: reduces protein levels; exert no effect on protein levels; not known: has not been experimentally determined; conditions: Table 6; inflammatory, up in SCD
SELP = conditions: for Effect on SELP: Table 6, adhesion, up in SCD
GM-CSF = test system: GM-CSF; parameters: key to Effect on GM-CSF: increases protein levels; decrease: reduces protein levels; exert no effect on protein levels; not known: has not been experimentally determined
NFkB = conditions: for Effect on NFkB: Table 6, activator of endothelial cells, up in SCD
CD36 = test system: CD36; parameters: key to Effect on CD36: increases protein levels; decrease: reduces protein levels; exert no effect on protein levels; not known: has not been experimentally determined
cGMP = conditions: Dai, et al 2011
[2] = test system: leukocyte-endothelial adhesion; conditions: colonic UR injury (Santen, et al 2010)
[3] = test system: (G) gamma-globin promoter
[4] = HU in SCD, endothelial adhesion molecule
[5] = on the surface of erythrocytes, HU therapy
[6] = Table 6, activator of endothelial cells, up in SCD
[7] = colonic UR injury (Santen, et al 2010)

SMILES: NC(=O)NO [HU, Hydroxyurea]
- levels of sICAM-1 (ICAM-1; [4]): decreasing
- Effect on ICAM-1 (ICAM-1): decrease
- Effect on ET-1 (ET-1): decrease
- levels of vasoconstrictor ET-1 (ET-1): decreasing
- erythrocyte-endothelial adhesion [1]: reduce
- levels of vasoconstrictor ET-3 (ET-3; HU in SCD (Makis, et al 2004)): decreasing
- Effect on ET-3 (ET-3; Table 6, vasoconstrictor, up in SCD): decrease
- levels of sSELE (SELE; [4]): decreasing
- Effect on SELE (SELE): decrease
- Effect on TNFα (TNFα): decrease
- levels of TNF-α (TNFα): decreased
- levels of sVCAM-1 (VCAM-1; [4]): decreasing
- Effect on VCAM-1 (VCAM-1; Table 6, adhesion, up in SCD): decrease
- Effect on IL-10 (IL-10): increase
- levels of anti-inflammatory mediator IL-10 (IL-10): increase
- Effect on VLA-4 (VLA-4; Table 6, adhesion, up in SCD): decrease
- gene and protein expression of VLA-4 (VLA-4; [5]): reducing
- levels of the pro-coagulatory molecule fibronectin (FN1; HU (Saleh, et al 1999)): no demonstrable effects
- Effect on FN1 (FN1): no effect
- NO bioavailability (NO; HU treatment of SCD (Conran, et al 2004)): increased
- Effect on NO (NO): increase
- expression of IL-6 (IL-6; HU (Laurance, et al 2010)): increases
- Effect on IL-6 (IL-6): increase
- expression of IL-8 (IL-8; HU (Laurance, et al 2010)): increases
- levels of IL-8 (IL-8; HU therapy (Lanaro, et al 2009)): no effect
- Effect on IL-8 (IL-8; Table 6, chemokine/inflammatory, up in SCD): increase
- production of fetal hemoglobin (HbF)-containing erythrocytes (fetal hemoglobin (HbF)): increasing
- Effect on IL-1β (IL-1β): increase
- Effect on eNOS (eNOS): increase
- Effect on IL-3 (IL-3): increase
- levels of sSELP (SELP; [4]): decreasing
- Effect on SELP (SELP): decrease
- levels of GM-CSF (GM-CSF; HU therapy (Conran, et al 2007)): decreased
- Effect on GM-CSF (GM-CSF; Table 6, inflammatory, up in SCD): decrease
- Effect on NFkB (NFkB): decrease
- Effect on CD36 (CD36; Table 6, adhesion, up in SCD): decrease
- gene and protein expression of CD36 (CD36; [5]): reducing

SMILES: O=S(=O)(c1cccc2c(O)nccc12)N1CCCNCC1 [Hydroxyfasudil, 5-(1,4-diazepane-1-sulfonyl)isoquinolin-1-ol]
- Effect on HIF-1 (HIF-1; [6]): decrease
- HIF-1α (HIF-1; Takata, et al 2008): reduce
- Effect on ICAM-1 (ICAM-1): decrease
- ICAM-1 (ICAM-1; [7]): reduce
- ICAM-1 expression (ICAM-1; diabetes-induced microvascular damage (Arita, et al 2009)): reduce
- Effect on ET-1 (ET-1): decrease
- levels of vasoconstrictor ET-1 (ET-1): suppress
- Effect on SELE (SELE): decrease
- SELE (SELE; [7]): reduce
- Effect on TNFα (TNFα): decrease
- levels of TNF-α (TNFα): decrease
- TF (TF; Satoh, et al 2010): reduce
- Effect on TF (TF; [6]): decrease
- Effect on IL-10 (IL-10): increase
- levels of anti-inflammatory mediator IL-10 (IL-10): increase
- Effect on FN1 (FN1): decrease
- levels of cGMP (cGMP): increased
- levels of NO (NO; Dai, et al 2011): increased
- Effect on NO (NO): increase
- Effect on ROS (ROS; Table 6, IR injury-related molecule, up in SCD): decrease
- injury-induced generation of ROS (ROS; UR injury (Shiotani, et al 2004)): suppress
- Effect on IL-6 (IL-6): decrease
- IL-6 levels (IL-6; after hypoxia/reoxygenation injury in brain tissue (Ding, et al 2010)): reduce
- IL-1β (IL-1β; He, et al 2008): decrease
- Effect on IL-1β (IL-1β): decrease
- levels of eNOS (eNOS; Dai, et al 2011): increased
- Effect on eNOS (eNOS): increase
- Effect on SELP (SELP): decrease
- SELP (SELP; [7]): reduce
- NFκB (NFkB; He, et al 2008): reduce
- Effect on NFkB (NFkB): decrease
- leukocyte-endothelial adhesion [2]: diminishing

SMILES: C=C1CC[C@H]2C(C)(C)CCC[C@]2(C)[C@H]1C/C=C1/C(=O)OC[C@@H]1O [Isocoronarin D]
- cell viability (K562 reporter cell line): 75-80%
- toxicity associated with HbF induction (K562 reporter cell line): little to no
- production of HbF [3]: induces
- EGFP inducing potency or HbF production ([3]; rank among seven diterpenes (Chokchaisiri, et al 2010)): highest
